In patent US20050154035A1, “Methods of using zonisamide as an adjunctive therapy for partial seizures” (Eisai Co., Ltd., priority 2004, published 2005):

What was measured:
[1] = tested on: dopaminergic and serotonergic neurotransmission; conditions: in vivo microdialysis; cited from earlier work
[2] = tested on: GABA/benzodiazepine receptor ionophore complex; conditions: in vitro, cited from earlier work
[3] = tested on: cultured mouse spinal cord neurons; conditions: 10-30 μg/mL, cited from earlier work
[4] = Pharmacovigilance review of rhabdomyolysis / CPK elevation in zonisamide-treated patients (U.S. and Japan); conditions: human, in vivo
Text: The pharmacovigilance data that were collected, reviewed and analyzed provided the following information in respect of the incidence of rhabdomyolysis/CPK elevation in the zonisamide-treated patient population. To date, a total of 10 cases fulfill the criteria of potential rhabdomyolysis cases. These 10 cases were reviewed in detail for evaluation of possible safety signals. All 10 cases fulfill serious criteria. Of these 10 cases, seven (7) cases were reported as rhabdomyolysis and three (3) cases were reported as CPK increase.
Of the seven (7) rhabdomyolysis cases, six (6) are verbatim cases from Dainippon and one (1) originates in the U.S. Of the seven (7) cases, three (3) were pediatric cases and four (4) were adult cases.
Of the seven (7) rhabdomyolysis cases, two (2) cases have strong confounding factors, but the possibility of zonisamide involvement cannot be completely excluded. Two (2) cases have moderate confounding factors, and zonisamide involvement may be possible.
Of the three (3) cases of CPK increase, one (1) is a verbatim report from Dainippon, and two (2) originated from the U.S. Of the three (3) cases, two are pediatric patients and one is an adult. Of these three (3) cases, two (2) recovered and the outcome of the third is unknown.
Of the three (3) cases of CPK increase, one (1) case has strong confounding factors, but the possibility of zonisamide involvement cannot be completely excluded. One (1) case has weak confounding factors, and zonisamide involvement may be possible.
Estimates of zonisamide exposure, based upon retail and mail order prescriptions, indicate that the number of unique patients taking zonisamide capsules in the U.S. is about 37,276 (total prescriptions per year/average number of prescriptions per patient per year less a calculated percentage decrease based on estimated annual dropouts) in the time between approval in 2000 and December 2002. Hospital patient data for that period, however, is not available and is not reflected in the estimates. Estimates of patient exposure for Japan indicate that the number of unique patients taking zonisamide is about 1,185,177 for time beginning with the approval in Japan through December 2002. Japanese data includes prescription and hospital patient data. Exposure from clinical trials are not included in the U.S. or Japanese exposure estimates. Based on these statistics, the estimated number of patients exposed to zonisamide in the U.S. and Japan is 1,222,453 unique patients. This is a rather conservative estimate, assuring that the number of patients actually exposed to zonisamide is unlikely to be higher than the estimate provided. Similarly, the incidences of rhabdomyolysis estimated herein are unlikely to be higher than calculated. […]

[5] = in vivo; cited from earlier work
[6] = tested on: rat hippocampal slices; conditions: 10-30 μg/mL; cited from earlier work
[7] = tested on: T-type Ca^2+ currents; conditions: in vitro; cited from earlier work

## NS(=O)(=O)Cc1noc2ccccc12 [zonisamide, 1,2-benzisoxazole-3-methanesulfonamide]
[1]
  effect on dopaminergic and serotonergic neurotransmission: facilitates both dopaminergic and serotonergic neurotransmission
[2]; allosteric fashion
  binding to the GABA/benzodiazepine receptor ionophore complex: binds to the GABA/benzodiazepine receptor ionophore complex
[2]
  effect on chloride flux: does not produce changes in chloride flux
[3]
  effect on synaptically-driven electrical activity: suppresses synaptically-driven electrical activity
[3]; cultured mouse spinal cord neurons
  effect on postsynaptic GABA or glutamate responses: without affecting
[4]
  CPK increase cases with no or only weak confounding factors: 2 cases
  rhabdomyolysis cases with no or only weak confounding factors: 3 cases
  time from initiation of zonisamide treatment to development of CPK increase: two (2) days and six (6) weeks
  time from initiation of zonisamide treatment to development of rhabdomyolysis: two (2) weeks and nine (9) years
[5]
  doses at which many of the side effects are more frequent: ≥ 300 mg per day
[6]
  effect on neuronal or glial uptake of [3H]-GABA: without affecting
[7]
  effect on voltage-dependent, transient inward currents (T-type Ca2+ currents): reduces voltage-dependent, transient inward currents
